This is an account of results in the SangsterLogP compilation.

This data set can be described thus: method code SF-AS, from DOI: 10.1248/cpb.24.61. The conditions noted are these: pH 7.4.
In the case of `Cc1c(C(=O)CN(C)C)c(=O)n(-c2ccccc2)n1C`, the logD was -0.95. As for `Cc1c(NC(N)=O)c(=O)n(-c2ccccc2)n1C`, the figure is -0.92.

Compound `CCC(C(=O)c1c(C)n(C)n(-c2ccccc2)c1=O)N(C)C` (configuration not stated) registered a logD of -0.24. Take `Cc1c(C(=O)C(C)N(C)C)c(=O)n(-c2ccccc2)n1C` (configuration not stated): the logD was -0.78. `Cc1c(NC(C)C(=O)N(C)C)c(=O)n(-c2ccccc2)n1C` (configuration not stated) returned a logD of 0.35.

The compound `Cc1c(N(C)C(C)C(=O)N(C)C)c(=O)n(-c2ccccc2)n1C` (configuration not stated) yielded a logD of 0.69. `Cc1c(NC(=O)CN(C)C)c(=O)n(-c2ccccc2)n1C` gave a logD of -0.37.

Usually logD stands for lipophilicity at a set pH, counting ionised and neutral species. Read a low logD as lower lipophilicity.
